Laboratory results taken from patent US7851637B2, “Compounds and methods for inhibiting the interaction of BCL proteins with binding partners” (Infinity Pharmaceuticals, Inc., priority 2004, dated 2010).

Assays:
Bcl-xL = Bcl-xL (Homo sapiens, UniProt Q07817); assay: Bcl-xL binding affinity analysis (fluorescence polarization binding assay); design: scale not given here
How it was run: (§1)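 FP readout; quantitative in vitro binding format; same method applied to both anti-apoptotic proteins.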

Bcl-2 = Bcl-2 (Homo sapiens, UniProt P10415); assay: Bcl-2 binding affinity analysis (fluorescence polarization binding assay)
Bcl-2, sequence (P10415 whole entry): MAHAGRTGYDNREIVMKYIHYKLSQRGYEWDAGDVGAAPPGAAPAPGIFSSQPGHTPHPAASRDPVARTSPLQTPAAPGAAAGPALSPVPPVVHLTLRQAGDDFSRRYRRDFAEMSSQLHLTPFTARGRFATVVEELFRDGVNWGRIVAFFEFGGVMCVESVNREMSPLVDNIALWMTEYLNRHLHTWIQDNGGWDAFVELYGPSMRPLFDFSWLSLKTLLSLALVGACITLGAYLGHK
How it was run: as §1

Bcl-xL, sequence (Q07817 whole entry): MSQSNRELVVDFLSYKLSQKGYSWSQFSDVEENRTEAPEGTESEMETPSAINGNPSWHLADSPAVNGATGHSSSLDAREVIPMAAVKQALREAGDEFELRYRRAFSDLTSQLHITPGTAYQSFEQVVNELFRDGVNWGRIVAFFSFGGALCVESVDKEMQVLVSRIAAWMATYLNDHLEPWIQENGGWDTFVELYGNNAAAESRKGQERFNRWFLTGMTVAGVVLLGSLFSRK

SMILES	Bcl-XL binding affinity Ki (Bcl-xL)	Ki (Bcl-2) [nM]
CC(O)C1C(CO)ON(Cc2cccc(CN(CCN(C)C)Cc3ccccc3-c3ccc(Cl)cc3)c2)C1C(=O)NC1CC2CC(C1C)C2(C)C (stereo not shown) [Compound 409]	♯	< 800
C[C@@H]1[C@@H](NC(=O)[C@@H]2C([C@H](C)O)[C@H](CO)ON2Cc2cccc(CN(CCN(C)C)Cc3ccccc3N3CCCCC3)c2)C[C@H]2C[C@@H]1C2(C)C (stereo partly shown) [Compound 410]	♯	< 800
CCN(CC)CCN(Cc1cccc(CN2OC(CO)C(C(C)O)C2C(=O)NC2CC3CC(C2C)C3(C)C)c1)CC1CCCCC1 (stereo not shown) [Compound 419]	♯	< 800
CCCC(CN(C)C)N(Cc1cccc(CN2OC(CO)C(C(C)O)C2C(=O)NC2CC3CC(C2C)C3(C)C)c1)Cc1ccccc1Cl (stereo not shown) [Compound 438]	♯	< 800
C[C@@H]1[C@@H](NC(=O)[C@@H]2C([C@H](C)O)[C@H](CO)ON2Cc2cccc(CN(Cc3ccccc3)C[C@@H]3CCCN3C(=O)OCc3ccccc3)c2)C[C@H]2C[C@@H]1C2(C)C (stereo partly shown) [Compound 439]	♯	800 to 6000
CCC(C)C(CN(C)C)N(Cc1cccc(CN2OC(CO)C(C(C)O)C2C(=O)NC2CC3CC(C2C)C3(C)C)c1)Cc1c(O)cccc1F (stereo not shown) [Compound 440]	♯	< 800
C[C@@H]1[C@@H](NC(=O)[C@@H]2C([C@H](C)O)[C@H](CO)ON2Cc2cccc(CN(CCN(C)C)C(c3ccccc3)c3ccccc3)c2)C[C@H]2C[C@@H]1C2(C)C (stereo partly shown) [Compound 441]	♯	< 800
CC(O)C1C(CO)ON(Cc2cccc(CNC(CCc3ccccc3)CN(C)C)c2)C1C(=O)NC1CC2CC(C1C)C2(C)C (stereo not shown) [Compound 445]	♯	< 800
CC(O)C1C(CO)ON(Cc2cccc(CN(C)CC(=O)N(C)C)c2)C1C(=O)NC1CC2CC(C1C)C2(C)C (stereo not shown) [Compound 446]	♯	< 800
CC(O)C1C(CO)ON(Cc2cccc(CN3CCC(c4ccccc4)C3CN(C)C)c2)C1C(=O)NC1CC2CC(C1C)C2(C)C (stereo not shown) [Compound 450]	♯	< 800
CC(O)C1C(CO)ON(Cc2cccc(CN3CC(c4ccccc4)CC3CN(C)C)c2)C1C(=O)NC1CC2CC(C1C)C2(C)C (stereo not shown) [Compound 457]	♯	< 800
CC(O)C1C(CO)ON(Cc2cccc(CN3CCN(C(=O)OCc4ccccc4)CC3)c2)C1C(=O)NC1CC2CC(C1C)C2(C)C (stereo not shown) [Compound 458]	♯	800 to 6000
CC(O)C1C(CO)ON(Cc2cccc(CNC(Cc3ccccc3)CN(C)C)c2)C1C(=O)NC1CC2CC(C1C)C2(C)C (stereo not shown) [Compound 467]	♯	< 800
CC(O)C1C(CO)ON(Cc2cccc(CNC(CCc3ccccc3)CN(C)C)c2)C1C(=O)NC1CC2CC(C1C)C2(C)C (stereo not shown) [Compound 468]	♯	< 800
CC(O)C1C(CO)ON(Cc2cccc(CN3Cc4ccccc4C3C(=O)N(C)C)c2)C1C(=O)NC1CC2CC(C1C)C2(C)C (stereo not shown) [Compound 469]	♯	< 800
CC(O)C1C(CO)ON(Cc2cccc(CN(CCN(C)C)C(C)(C)c3ccccc3)c2)C1C(=O)NC1CC2CC(C1C)C2(C)C (stereo not shown) [Compound 475]	♯	< 800
CC(O)C1C(CO)ON(Cc2cccc(CN(CCN(C)C)c3ccccc3)c2)C1C(=O)NC1CC2CC(C1C)C2(C)C (stereo not shown) [Compound 476]	♯	< 800
CC(O)C1C(CO)ON(Cc2cccc(C(=O)NC(CC3CCCCC3)CN(C)C)c2)C1C(=O)NC1CC2CC(C1C)C2(C)C (stereo not shown) [Compound 499]	♯	< 800
CC(O)C1C(CO)ON(Cc2cccc(C(=O)NCCc3ccccc3)c2)C1C(=O)NC1CC2CC(C1C)C2(C)C (stereo not shown) [Compound 503]	♯	< 800
CC(O)C1C(CO)ON(Cc2cccc(C(=O)N(CCN(C)C)Cc3ccccc3)c2)C1C(=O)NC1CC2CC(C1C)C2(C)C (stereo not shown) [Compound 504]	♯	< 800
CC(O)C1C(CO)ON(Cc2cccc(C(=O)NC(CN(C)C)c3ccccc3)c2)C1C(=O)NC1CC2CC(C1C)C2(C)C (stereo not shown) [Compound 506]	♯	< 800
CC(O)C1C(CO)ON(Cc2cccc(C(=O)NCc3ccccc3)c2)C1C(=O)NC1CC2CC(C1C)C2(C)C (stereo not shown) [Compound 510]	♯	< 800
CC(O)C1C(CO)ON(Cc2cccc(C(=O)NC(CCc3ccccc3)CN(C)C)c2)C1C(=O)NC1CC2CC(C1C)C2(C)C (stereo not shown) [Compound 511]	♯	< 800
C[C@H](O)[C@@H]1[C@H](CO)ON(Cc2cccc(CN(CCN(C)C)Cc3ccccc3)c2)[C@@H]1C(=O)NCCc1cccc(-c2ccccc2)c1 [Compound 513]	♯	800 to 6000

SMILES	Bcl-XL binding affinity Ki (Bcl-xL)	Ki (Bcl-2) [nM]
C[C@H](O)[C@@H]1[C@H](CO)ON(Cc2cccc(CN(CCN(C)C)Cc3ccccc3)c2)[C@@H]1C(=O)NCCc1cccc(Br)c1 [Compound 514]	♯	800 to 6000
C[C@H](O)[C@@H]1[C@H](CO)ON(Cc2cccc(CN(CCN(C)C)Cc3ccccc3)c2)[C@@H]1C(=O)Nc1cccc(-c2ccccc2)c1 [Compound 515]	♯	< 800
C[C@H](O)[C@@H]1[C@H](CO)ON(Cc2cccc(CN(CCN(C)C)Cc3ccccc3)c2)[C@@H]1C(=O)NCCc1c[nH]c2ccccc12 [Compound 516]	♯	6000 to 50000
C[C@H](O)[C@@H]1[C@H](CO)ON(Cc2cccc(CN(CCN(C)C)Cc3ccccc3)c2)[C@@H]1C(=O)NCCCN(C)C [Compound 517]	♯	6000 to 50000
C[C@H](O)[C@@H]1[C@H](CO)ON(Cc2cccc(CN(CCN(C)C)Cc3ccccc3)c2)[C@@H]1C(=O)N[C@H]1CCN(Cc2ccccc2)C1 [Compound 518]	♯	6000 to 50000
C[C@H](O)[C@@H]1[C@H](CO)ON(Cc2cccc(CN(CCN(C)C)Cc3ccccc3)c2)[C@@H]1C(=O)NCCCCc1ccccc1 [Compound 519]	♯	800 to 6000
C[C@H](O)[C@@H]1[C@H](CO)ON(Cc2cccc(CN(CCN(C)C)Cc3ccccc3)c2)[C@@H]1C(=O)NCC(c1ccccc1)c1ccccc1 [Compound 520]	♯	800 to 6000
C[C@H](NC(=O)[C@@H]1[C@H]([C@H](C)O)[C@H](CO)ON1Cc1cccc(CN(CCN(C)C)Cc2ccccc2)c1)c1ccc2ccccc2c1 [Compound 521]	♯	800 to 6000
C[C@H](O)[C@@H]1[C@H](CO)ON(Cc2cccc(CN(CCN(C)C)Cc3ccccc3)c2)[C@@H]1C(=O)N[C@H](C)c1ccc2ccccc2c1 [Compound 522]	♯	800 to 6000
C[C@H](O)[C@@H]1[C@H](CO)ON(Cc2cccc(CN(CCN(C)C)Cc3ccccc3)c2)[C@@H]1C(=O)NCCCc1ccccc1 [Compound 525]	♯	6000 to 50000
C[C@H](O)[C@@H]1[C@H](CO)ON(Cc2cccc(CN(CCN(C)C)Cc3ccccc3)c2)[C@@H]1C(=O)NCc1ccc(-c2ccccc2)cc1 [Compound 526]	♯	< 800
C[C@H](O)[C@@H]1[C@H](CO)ON(Cc2cccc(CN(CCN(C)C)Cc3ccccc3)c2)[C@@H]1C(=O)NC1CCN(Cc2ccccc2)CC1 [Compound 527]	♯	6000 to 50000
C[C@H](O)[C@@H]1[C@H](CO)ON(Cc2cccc(CN(CCN(C)C)Cc3ccccc3)c2)[C@@H]1C(=O)NC1CCN(C(=O)OC(C)(C)C)CC1 [Compound 528]	♯	6000 to 50000
CC(C)C[C@@H](CN(C)C)N(Cc1ccccc1)Cc1cccc(CN2O[C@@H](CO)[C@@H]([C@H](C)O)[C@H]2C(=O)NCCCn2ccnc2)c1 [Compound 529]	♯	6000 to 50000
CC(C)C[C@@H](CN(C)C)N(Cc1ccccc1)Cc1cccc(CN2O[C@@H](CO)[C@@H]([C@H](C)O)[C@H]2C(=O)NCc2ccc(Oc3ccccc3)cc2)c1 [Compound 530]	♯	800 to 6000
CC(C)C[C@@H](CN(C)C)N(Cc1ccccc1)Cc1cccc(CN2O[C@@H](CO)[C@@H]([C@H](C)O)[C@H]2C(=O)NCCCN(C)c2ccccc2)c1 [Compound 531]	♯	800 to 6000
CC(C)C[C@@H](CN(C)C)N(Cc1ccccc1)Cc1cccc(CN2O[C@@H](CO)[C@@H]([C@H](C)O)[C@H]2C(=O)NCc2cccc3ccccc23)c1 [Compound 532]	♯	800 to 6000
CC(C)CCNC(=O)[C@@H]1[C@H]([C@H](C)O)[C@H](CO)ON1Cc1cccc(CN(Cc2ccccc2)[C@@H](CC(C)C)CN(C)C)c1 [Compound 533]	♯	800 to 6000
COCCNC(=O)[C@@H]1[C@H]([C@H](C)O)[C@H](CO)ON1Cc1cccc(CN(Cc2ccccc2)[C@@H](CC(C)C)CN(C)C)c1 [Compound 535]	♯	6000 to 50000
CC(C)C[C@@H](CN(C)C)N(Cc1ccccc1)Cc1cccc(CN2O[C@@H](CO)[C@@H]([C@H](C)O)[C@H]2C(=O)NCc2ccc(-c3ccccc3)cc2)c1 [Compound 536]	♯	800 to 6000
CC(C)C[C@@H](CN(C)C)N(Cc1ccccc1)Cc1cccc(CN2O[C@@H](CO)[C@@H]([C@H](C)O)[C@H]2C(=O)NCc2cccc(-c3ccccc3)c2)c1 [Compound 537]	♯	800 to 6000
CC(C)C[C@@H](CN(C)C)N(Cc1ccccc1)Cc1cccc(CN2O[C@@H](CO)[C@@H]([C@H](C)O)[C@H]2C(=O)NC(C)C)c1 [Compound 539]	♯	6000 to 50000
CC(C)CNC(=O)[C@@H]1[C@H]([C@H](C)O)[C@H](CO)ON1Cc1cccc(CN(Cc2ccccc2)[C@@H](CC(C)C)CN(C)C)c1 [Compound 540]	♯	6000 to 50000
